Like-named read-outs stand apart in the source and are kept apart here.
Legend:
[1] = molecular target: Factor XIa (Homo sapiens (Human), UniProt P03951); test: Factor XIa inhibition assay (FLINT) utilizing a fluorophore-quencher pair peptide substrate; format: biochemical; details: 30 min preincubation, kinetic reads over 30 min, read-out: FXIa Kin Inh IC50
Method in brief: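 FXIa ([…]) preincubated 30 min with compound (11-point 3-fold dilution, top 100 nM, 2% DMSO), then 15 μM quenched FXI Arg146-based peptide added; Tris pH 7.5, CaCl2, BSA, CHAPS. Fluorescence 485/520 nm read kinetically every 5 min over 30 min at RT; IC50 by 4-parameter fit.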

[2] = molecular target: human plasma kallikrein (Homo sapiens (Human), UniProt P03952); test: Kallikrein inhibition assay (FLINT) utilizing a quenched AMC peptide substrate; format: biochemical; details: 30 min preincubation, kinetic reads over 30 min, Z-Gly-Pro-Arg-AMC substrate 50 μM; read-out: Kallikrein Kin Inh IC50
Method in brief: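 Fluorogenic Z-Gly-Pro-Arg-AMC cleavage (50 μM substrate, 2 nM kallikrein, Tris pH 7.5, CaCl2, BSA, CHAPS, 2% DMSO) read kinetically at 340/440 nm for 30 min after 30-min compound pre-incubation. Compounds in 11-point 3-fold series from 1 μM; percent inhibition fitted to four-parameter equation for IC50.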

[3] = 5Fam-KLTRAETV-K5Tamra substrate 15 μM

Sequence of human plasma kallikrein (P03952 391-638): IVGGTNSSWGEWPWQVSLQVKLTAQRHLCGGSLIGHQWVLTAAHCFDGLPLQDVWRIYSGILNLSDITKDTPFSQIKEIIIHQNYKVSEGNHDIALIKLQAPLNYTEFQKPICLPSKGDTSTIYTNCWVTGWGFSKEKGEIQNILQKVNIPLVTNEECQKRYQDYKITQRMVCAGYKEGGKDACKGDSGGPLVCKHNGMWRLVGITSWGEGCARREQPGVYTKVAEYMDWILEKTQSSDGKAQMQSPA
Sequence of human plasma kallikrein (P03952 20-390 partner): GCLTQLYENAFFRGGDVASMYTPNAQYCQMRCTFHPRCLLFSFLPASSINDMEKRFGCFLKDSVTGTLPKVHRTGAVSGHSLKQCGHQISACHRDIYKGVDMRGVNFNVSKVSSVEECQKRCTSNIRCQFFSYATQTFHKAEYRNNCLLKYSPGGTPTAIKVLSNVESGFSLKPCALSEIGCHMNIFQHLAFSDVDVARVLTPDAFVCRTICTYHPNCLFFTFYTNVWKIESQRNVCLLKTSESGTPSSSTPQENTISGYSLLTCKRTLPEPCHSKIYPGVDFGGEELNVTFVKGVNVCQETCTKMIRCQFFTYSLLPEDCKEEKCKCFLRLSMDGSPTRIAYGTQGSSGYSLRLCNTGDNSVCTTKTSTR
Sequence of Factor XIa (P03951 388-625): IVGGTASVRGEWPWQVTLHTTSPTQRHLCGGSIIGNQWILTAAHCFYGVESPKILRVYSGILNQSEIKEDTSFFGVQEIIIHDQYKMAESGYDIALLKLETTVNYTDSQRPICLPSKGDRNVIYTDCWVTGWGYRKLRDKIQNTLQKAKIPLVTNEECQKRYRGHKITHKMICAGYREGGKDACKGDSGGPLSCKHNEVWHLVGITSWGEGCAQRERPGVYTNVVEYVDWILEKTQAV
Sequence of Factor XIa (P03951 19-387 partner): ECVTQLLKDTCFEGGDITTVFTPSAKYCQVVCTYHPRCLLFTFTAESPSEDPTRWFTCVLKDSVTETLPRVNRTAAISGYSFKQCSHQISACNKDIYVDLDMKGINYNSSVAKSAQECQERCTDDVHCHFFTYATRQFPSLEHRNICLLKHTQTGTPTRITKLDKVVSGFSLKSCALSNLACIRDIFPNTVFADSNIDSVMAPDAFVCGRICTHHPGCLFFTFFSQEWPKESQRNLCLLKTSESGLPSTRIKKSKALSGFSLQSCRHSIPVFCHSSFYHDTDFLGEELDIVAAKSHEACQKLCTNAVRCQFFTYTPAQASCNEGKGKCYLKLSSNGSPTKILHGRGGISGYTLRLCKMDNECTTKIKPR

| SMILES | IC50 [1, 3] | IC50 [2] | IC50 ([1]; 5Fam-[…]-K5Tamra substrate 15 μM) |
| --- | --- | --- | --- |
| O=C1C=C(c2c(-n3cc(Cl)nn3)ccc(Cl)c2F)C[C@H]2CC[C@@H](c3nc(-c4cc[nH]c(=O)c4F)c[nH]3)N12 [Example 200, (3S,8aR)-7-(3-chloro-6-(4-chloro-1H-1,2,3-triazol-1-yl)-2-fluorophenyl)-3-(4-(3-fluoro-2-oxo-1,2-dihydropyridin-4-yl)-1H-imidazol-2-yl)-2,3,8,8a-tetrahydroindolizin-5(1H)-one] | 4.4 nM | 24.4 nM | – |
| O=C1C=C(c2c(-n3cc(C(F)(F)F)nn3)ccc(Cl)c2F)C[C@H]2CC[C@@H](c3ncc(-c4ccnc(CO)c4F)[nH]3)N12 [Example 67, (3S,8aR)-7-(3-chloro-2-fluoro-6-(4-(trifluoromethyl)-1H-1,2,3-triazol-1-yl)phenyl)-3-(5-(3-fluoro-2-(hydroxymethyl)pyridin-4-yl)-1H-imidazol-2-yl)-2,3,8,8a-tetrahydroindolizin-5(1H)-one] | 10.7 nM | 85.7 nM | – |
| NC(=O)c1ccc(-c2cnc([C@@H]3CC[C@@H]4CC(c5c(-n6cnnn6)ccc(Cl)c5F)=CC(=O)N43)[nH]2)cn1 (single isomer, unassigned) [Example 225] | 2.6 nM | 16.6 nM | – |
| COC(=O)c1nccc(-c2cnc([C@@H]3CC[C@@H]4CC(c5c(-n6cc(Cl)nn6)ccc(Cl)c5F)=CC(=O)N43)[nH]2)c1F [Example 50] | 19.8 nM | 31.6 nM | – |
| O=C(Nc1ccsc1-c1c[nH]c([C@@H]2CCC3CC(c4c(-n5cnnn5)ccc(Cl)c4F)=CC(=O)N32)n1)C1CC1 (stereo partly drawn) [Example 248, N-[2-[2-[(3S)-7-[3-Chloro-2-fluoro-6-(tetrazol-1-yl)phenyl]-5-oxo-2,3,8,8a-tetrahydro-1H-indolizin-3-yl]-1H-imidazol-4-yl]-3-thienyl]cyclopropanecarboxamide] | 1 nM | 1.5 nM | – |
| O=C(NC12CC(C1)C2)c1nccc(-c2cnc([C@@H]3CC[C@@H]4CC(c5c(-n6cnnn6)ccc(Cl)c5F)=CC(=O)N43)[nH]2)c1F [Example 104, N-(bicyclo[1.1.1]pentan-1-yl)-4-(2-((3S,8aR)-7-(3-chloro-2-fluoro-6-(1H-tetrazol-1-yl)phenyl)-5-oxo-1,2,3,5,8,8a-hexahydroindolizin-3-yl)-1H-imidazol-5-yl)-3-fluoropicolinamide] | 16.6 nM | 35.4 nM | – |
| O=C1C=C(c2c(-n3cnnn3)ccc(Cl)c2F)CC2CC[C@@H](c3nc(Cl)c(-c4cc[nH]c(=O)c4)[nH]3)N12 (stereo partly drawn) [Example 199, (3S)-7-(3-chloro-2-fluoro-6-(1H-tetrazol-1-yl)phenyl)-3-(4 chloro-5-(2-oxo-1,2-dihydropyridin-4-yl)-1H-imidazol-2-yl)-2,3,8,8a-tetrahydroindolizin-5(1H)-one] | 1.3 nM | 15.6 nM | – |

Next, values leading:

| IC50 [1, 3] | IC50 [2] | IC50 ([1]; 5Fam-[…]-K5Tamra substrate 15 μM) | SMILES |
| --- | --- | --- | --- |
| 9.1 nM | 207 nM | – | CO[C@H]1C[C@@H](c2nc(-c3ccc(N)nc3F)c[nH]2)N2C(=O)C=C(c3c(-n4cnnn4)ccc(Cl)c3F)CC12 (stereo partly drawn) [Example 285, (1 S,3S)-3-(4-(6-Amino-2-fluoropyridin-3-yl)-1H-imidazol-2-yl)-7-(3-chloro-2-fluoro-6-(1H-tetrazol-1-yl)phenyl)-1-methoxy-2,3,8,8a-tetrahydroindolizin-5(1H)-one] |
| – | > 100 nM | 92.7 nM | Nc1ccccc1-c1cnc([C@@H]2CC[C@H]3CC(c4c(-n5cnnn5)ccc(Cl)c4F)=CC(=O)N32)[nH]1 (relative stereo) [Example 308, (3S,8aS*)-3-(4-(2-Aminophenyl)-1H-imidazol-2-yl)-7-(3-chloro-2-fluoro-6-(1H-tetrazol-1-yl)phenyl)-2,3,8,8a-tetrahydroindolizin-5(1H)-one] |
| 22.6 nM | 405 nM | – | O=C(O)c1ccc(-c2cnc([C@@H]3CCC4CC(c5c(-n6cnnn6)ccc(Cl)c5F)=CC(=O)N43)[nH]2)cc1F (stereo partly drawn) [Example 342, 4-[2-[(3S)-7-[3-Chloro-2-fluoro-6-(tetrazol-1-yl)phenyl]-5-oxo-2,3,8,8a-tetrahydro-1H-indolizin-3-yl]-1H-imidazol-4-yl]-2-fluoro-benzoic acid] |

Source: patent US20230295157A1, “3-(1H-IMIDAZOL-2-YL)-2,3,8,8A-TETRAHYDROINDOLIZIN-5(1H)-ONE DERIVATIVES USEFUL AS FACTOR XIA INHIBITORS” (JANSSEN PHARMACEUTICA NV, priority 2020, published 2023)
